Some test systems named below: MCF7; MDA-MB-435; U-251; MDA-N; DU-145; PC-3; ACHN; HL-60; SK-MEL-2; Hs-578T; OVCAR-3; SF-268; T47D; SK-OV-3; SNB-75; SW-620; MDA-MB-231; SK-MEL-5; RPMI-8226; NCI-H522.
Holding throughout (experiment): inhibition of tumour cell growth, NCI panel, 48 h

Each structure is given as a SMILES string.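 Test compounds were applied to cells in 96-well plates for 48 hours at 5 doses. GI50 is the concentration that inhibits growth by half.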 Calls of active or inactive are those of the source. No stated cut-off is given here; in the data, active = GI50 up to about 1.1 µM and inactive = higher. Some results are limits rather than exact numbers.

For `COc1ccc2c(O)c3[n+](cc2c1OC)CCc1cc2c(cc1-3)OCO2`, the GI50 is 56.2 µM (inactive) in the experiment on MCF7; 24.8 µM (inactive) with MDA-MB-435; > 100 µM (inactive) in the experiment with U-251; 33.6 µM (inactive) in the experiment with MDA-N; > 100 µM (inactive) in the experiment on DU-145; > 100 µM (inactive) with PC-3. In addition, the GI50 was > 100 µM (inactive) in the experiment on ACHN; 33.2 µM (inactive) in the experiment on HL-60; > 100 µM (inactive) in the experiment with SK-MEL-2; > 100 µM (inactive) in the experiment with Hs-578T; > 100 µM (inactive) in the experiment with OVCAR-3; > 100 µM (inactive) in the experiment with SF-268. Further, the GI50 in the experiment with T47D is 88.3 µM (inactive); with SK-OV-3, > 100 µM (inactive); in the experiment with SNB-75, > 100 µM (inactive); in the experiment on SW-620, 45.5 µM (inactive); in the experiment with MDA-MB-231, > 100 µM (inactive); with SK-MEL-5, 99.1 µM (inactive). Besides, the GI50 is 84.3 µM (inactive) in the experiment with RPMI-8226 and 17 µM (inactive) with NCI-H522.
Regarding `CC1=NN(C(=O)CSc2nc3ccc(I)cc3c(=O)n2Cc2ccccc2)C(=O)C1`, the GI50 in the experiment on MCF7 was 22.8 µM (inactive); with MDA-MB-435, 26.4 µM (inactive); with U-251, 25.4 µM (inactive); in the experiment on MDA-N, 31.2 µM (inactive); in the experiment with DU-145, 37.1 µM (inactive); with PC-3, 17.2 µM (inactive). The GI50 was 28.8 µM (inactive) in the experiment on ACHN; 33.3 µM (inactive) with HL-60; 17.2 µM (inactive) in the experiment on SK-MEL-2; 7.89 µM (inactive) with Hs-578T; 27.9 µM (inactive) in the experiment on OVCAR-3; 21.4 µM (inactive) in the experiment with SF-268. In addition, the GI50 in the experiment on T47D is 19.1 µM (inactive); in the experiment on SK-OV-3, 29.1 µM (inactive); with SNB-75 it was 35.3 µM (inactive); in the experiment with SW-620 it was 46.5 µM (inactive); with MDA-MB-231, 16.9 µM (inactive); in the experiment on SK-MEL-5, 21.7 µM (inactive). Besides, the GI50 in the experiment on RPMI-8226 was 35 µM (inactive); in the experiment with NCI-H522, 7.05 µM (inactive).
As for `C/C=C(/C)C(=O)O[C@H]1[C@H]2[C@@H]([C@@H](OC(C)=O)[C@H](C)C(=O)[C@@]34C[C@@H](C)C(=O)[C@]3(/C=C(\C)[C@H]1OC(C)=O)O4)C2(C)C`, the GI50 was 3.26 µM (inactive) in the experiment on MCF7; 2.99 µM (inactive) in the experiment with MDA-MB-435; 5.7 µM (inactive) in the experiment with U-251; 1.27 µM (inactive) in the experiment on MDA-N; 1.66 µM (inactive) in the experiment with DU-145; 3.45 µM (inactive) with PC-3. The GI50 in the experiment with ACHN is 3.8 µM (inactive); with HL-60 it was 0.305 µM (active); in the experiment with SK-MEL-2 it was 4.27 µM (inactive); in the experiment on Hs-578T it was 5.64 µM (inactive); in the experiment on OVCAR-3, 3.95 µM (inactive); in the experiment on SF-268, 5.98 µM (inactive). For the same compound, the GI50 with T47D is 2.31 µM (inactive); in the experiment with SK-OV-3 it was 16 µM (inactive); in the experiment with SNB-75, 4.98 µM (inactive); with SW-620, 3.39 µM (inactive); in the experiment with MDA-MB-231, 3.72 µM (inactive); in the experiment on SK-MEL-5 it was 3.64 µM (inactive). The GI50 was 3.35 µM (inactive) in the experiment on RPMI-8226 and 3.28 µM (inactive) with NCI-H522.
On to `c1ccc2c(c1)CC1c3[nH]c4ccccc4c3CCN21` (stereo not given), for which the GI50 with MCF7, in the experiment on MDA-MB-435, in the experiment on U-251, in the experiment with MDA-N, in the experiment on DU-145 and in the experiment with PC-3 was > 10 µM (inactive) in each case. For the same compound, the GI50 with ACHN, in the experiment on HL-60, with SK-MEL-2, with Hs-578T, with OVCAR-3 and in the experiment with SF-268 was > 10 µM (inactive) throughout. The GI50 with T47D, with SK-OV-3, in the experiment with SNB-75, in the experiment on SW-620, with MDA-MB-231 and in the experiment with SK-MEL-5 was > 10 µM (inactive) each time. The GI50 with RPMI-8226 and with NCI-H522 was > 10 µM (inactive) each time.
As to `CC[C@@H]1CC[C@@H]2[C@H](CC[C@]3(C)[C@@H](O)CC[C@@H]23)[C@H]1CO`, the GI50 in the experiment with MCF7 was > 100 µM (inactive); with MDA-MB-435, 66.1 µM (inactive); in the experiment on U-251, > 100 µM (inactive); in the experiment with MDA-N, > 100 µM (inactive); with DU-145, > 100 µM (inactive); in the experiment with PC-3, 76.4 µM (inactive). The GI50 in the experiment on ACHN was > 100 µM (inactive); with HL-60, 23.3 µM (inactive); in the experiment with SK-MEL-2 it was > 100 µM (inactive); with Hs-578T, > 100 µM (inactive); with OVCAR-3 it was > 100 µM (inactive); in the experiment with SF-268, > 100 µM (inactive). The GI50 was 70.5 µM (inactive) with T47D; > 100 µM (inactive) in the experiment on SK-OV-3; 75.9 µM (inactive) with SNB-75; > 100 µM (inactive) in the experiment on SW-620; > 100 µM (inactive) in the experiment on MDA-MB-231; 31.3 µM (inactive) in the experiment with SK-MEL-5. Also, the figures for the GI50 in the experiment with RPMI-8226 and in the experiment on NCI-H522 were 67 µM (inactive) and 44.6 µM (inactive), respectively.
Turning to `Nc1nc(Cl)cc(NCC2(CO)CCC(Cc3ccccc3)C2)n1` (stereo not given), the GI50 was 11.2 µM (inactive) in the experiment with MCF7; 7.73 µM (inactive) with MDA-MB-435; 25.6 µM (inactive) with U-251; 23.1 µM (inactive) with MDA-N; 27.8 µM (inactive) in the experiment on DU-145; 26.7 µM (inactive) in the experiment with PC-3. The GI50 is 20 µM (inactive) in the experiment with ACHN; 2.69 µM (inactive) in the experiment on HL-60; 23.6 µM (inactive) with SK-MEL-2; 25.4 µM (inactive) with Hs-578T; 43.1 µM (inactive) in the experiment on OVCAR-3; 30.1 µM (inactive) with SF-268. Further, the GI50 was 6.5 µM (inactive) in the experiment on T47D; 36 µM (inactive) in the experiment with SK-OV-3; 33.6 µM (inactive) with SNB-75; 15 µM (inactive) in the experiment with SW-620; 33 µM (inactive) with MDA-MB-231; 0.671 µM (active) with SK-MEL-5. Also, the results for the GI50 in the experiment on RPMI-8226 and in the experiment with NCI-H522 were 12 µM (inactive) and 10.1 µM (inactive), respectively.
With `O=P1(Cc2ccccc2)c2ccccc2-c2ccccc21`, the GI50 in the experiment on MCF7 was 3.08 µM (inactive); with MDA-MB-435, 0.764 µM (active); in the experiment on U-251, 3.88 µM (inactive); in the experiment with MDA-N, 1.22 µM (inactive); in the experiment on DU-145 it was 7.38 µM (inactive); in the experiment on PC-3, 2.82 µM (inactive). For the same compound, the GI50 in the experiment with ACHN was 11.2 µM (inactive); in the experiment with HL-60 it was 1.04 µM (active); with SK-MEL-2 it was 2.18 µM (inactive); with Hs-578T it was 7.05 µM (inactive); in the experiment with OVCAR-3, 1.06 µM (active); in the experiment with SF-268 it was 9.12 µM (inactive). For the same compound, the GI50 with T47D is 0.0658 µM (active); with SK-OV-3, 15.7 µM (inactive); in the experiment with SNB-75, 4.75 µM (inactive); with SW-620, 3.61 µM (inactive); in the experiment on MDA-MB-231, 20.7 µM (inactive); in the experiment with SK-MEL-5, 1.46 µM (inactive). Further, the values for the GI50 with RPMI-8226 and with NCI-H522 were 0.65 µM (active) and 1.87 µM (inactive), respectively.
As for `COc1cccc(C2c3cc4c(cc3OC(NNS(=O)(=O)c3ccc(C)cc3)C2C)OCO4)c1O` (stereo not given), the GI50 with MCF7 is 18.7 µM (inactive); in the experiment with MDA-MB-435 it was 23.4 µM (inactive); with U-251, 22.3 µM (inactive); with MDA-N, 24.5 µM (inactive); in the experiment on DU-145, 30.5 µM (inactive); with PC-3, 12.4 µM (inactive). In addition, the GI50 is 23.6 µM (inactive) with ACHN; 18 µM (inactive) with HL-60; 17.4 µM (inactive) with SK-MEL-2; 12.8 µM (inactive) in the experiment on Hs-578T; 18.9 µM (inactive) in the experiment with OVCAR-3; 41.9 µM (inactive) with SF-268. Further, the GI50 in the experiment on T47D was 18.2 µM (inactive); in the experiment with SK-OV-3, 38.8 µM (inactive); in the experiment with SNB-75, 11.2 µM (inactive); in the experiment on SW-620 it was 23 µM (inactive); with MDA-MB-231 it was 20.4 µM (inactive); in the experiment on SK-MEL-5 it was 20.4 µM (inactive). Also, the GI50 in the experiment on RPMI-8226 was 6.31 µM (inactive); in the experiment on NCI-H522, 11.4 µM (inactive).
